Reference: patent publication US20140171417A1, “TRICYCLIC COMPOUNDS” (NOVARTIS AG, priority 2012, published 2014)

What follows are compounds tested against T1, CFTR (Homo sapiens, UniProt P13569) (assay: IonWorks Quattro assay (CFTR Inhibitor Assay), whole-cell planar patch clamp). Conditions: inward current (−100 mV); CHO cells stably expressing WT-CFTR; CFTR activated by 10 μM forskolin; test compound incubated 10 min.
T1 construct: expressed in transfected cells
Type: cell-based
Description: CFTR activity can be quantified by electrophysiology methods, using the whole-cell configuration of the patch clamp technique (Hamill O, Marty A, Neher E, Sakmann B and Sigworth F. ‘Improved patch-clamp techniques for high resolution current recording from cells and cell-free membrane patches.’ Pflugers Archive 1981 391: 85-100). This assay directly measures the currents associated with chloride flow through CFTR channels whilst either maintaining or adjusting the transmembrane voltage. This assay can use either single glass micropipettes or parallel planar arrays to measure CFTR activity from native or recombinant cell systems. Currents measured using parallel planar arrays can be quantified using an appropriately equipped instrument such as the IonWorks Quattro (Molecular Devices Corporation, Sunnyvale, Calif.). The Quattro system can measure CFTR currents from either a single cell per recording well (HT configuration) or alternatively from a population of 64 cells per well (Population Patch Clamp PPC) (Finkel A, Wittel A, Yang N, Handran S, Hughes J, Costantin J. ‘Population patch clamp improves data consistency and success rates in the measurement of ionic currents.’ J Biomol Screen. 2006 August; 11 (5):488-96).
Chinese hamster ovary (CHO) cells stably expressing WT-CFTR channels were used for the IonWorks Quattro experiments. Cells were maintained at 37° C. in 5% v/v CO2 at 100% humidity in MEM alpha medium supplemented with 10% (v/v) FCS, 100 U/mL Penicillin/Streptomycin, and 100 μg/L methotrexate. For experiments, cells were grown in 225 cm^2 tissue culture flasks until almost confluent. Cells were removed from the flask using trypsin-EDTA and resuspended in extracellular recording solution for immediate experimentation.
Cells, at a density of 1.5-2 million per mL, were placed on the Quattro system, added to the planar patch plate and seals allowed to establish for 5-10 mins. After assessing seal resistances (typically >50 MΩ), whole-cell access was obtained by perforation with 100 μg/mL amphotericin B. Baseline currents were measured by a pre-compound scan obtained by application of a voltage ramp from −100 to +100 mV. CFTR was activated by the addition of 10 μM forskolin to each of the 384 wells of the patch plate. After 5 min incubation the post-compound 1 currents were measured, again by application of a voltage ramp from −100 to +100 mV. Test compounds, diluted from 10 mM stocks in DMSO in extracellular solution were then added to the patch plate and were incubated for a further 10 min. The post-compound 2 currents were measured by the application of the same voltage ramp from −100 to +100 mV. The inhibition of CFTR was determined from the difference in current between the forskolin addition (post-compound 1) and the test compound (post-compound 2). This was determined at both −100 mV and +100 mV which represents the inward and outward current respectively.
Extracellular solution (ECS): 145 mM NaCl, 4 mM CsCl, 5 mM D-glucose, 10 mM TES, 1 mM CaCl2, 1 mM MgCl2, pH 7.4 NaOH
Intracellular solution (ICS): 113 mM L-Aspartic acid, 113 mM CsOH, 27 mM CsCl, 1 mM NaCl, 1 mM MgCl2, 1 mM EGTA, 10 mM TES. pH 7.2 with CsOH. Filter sterilized before use.

T1 sequence (P13569 whole entry): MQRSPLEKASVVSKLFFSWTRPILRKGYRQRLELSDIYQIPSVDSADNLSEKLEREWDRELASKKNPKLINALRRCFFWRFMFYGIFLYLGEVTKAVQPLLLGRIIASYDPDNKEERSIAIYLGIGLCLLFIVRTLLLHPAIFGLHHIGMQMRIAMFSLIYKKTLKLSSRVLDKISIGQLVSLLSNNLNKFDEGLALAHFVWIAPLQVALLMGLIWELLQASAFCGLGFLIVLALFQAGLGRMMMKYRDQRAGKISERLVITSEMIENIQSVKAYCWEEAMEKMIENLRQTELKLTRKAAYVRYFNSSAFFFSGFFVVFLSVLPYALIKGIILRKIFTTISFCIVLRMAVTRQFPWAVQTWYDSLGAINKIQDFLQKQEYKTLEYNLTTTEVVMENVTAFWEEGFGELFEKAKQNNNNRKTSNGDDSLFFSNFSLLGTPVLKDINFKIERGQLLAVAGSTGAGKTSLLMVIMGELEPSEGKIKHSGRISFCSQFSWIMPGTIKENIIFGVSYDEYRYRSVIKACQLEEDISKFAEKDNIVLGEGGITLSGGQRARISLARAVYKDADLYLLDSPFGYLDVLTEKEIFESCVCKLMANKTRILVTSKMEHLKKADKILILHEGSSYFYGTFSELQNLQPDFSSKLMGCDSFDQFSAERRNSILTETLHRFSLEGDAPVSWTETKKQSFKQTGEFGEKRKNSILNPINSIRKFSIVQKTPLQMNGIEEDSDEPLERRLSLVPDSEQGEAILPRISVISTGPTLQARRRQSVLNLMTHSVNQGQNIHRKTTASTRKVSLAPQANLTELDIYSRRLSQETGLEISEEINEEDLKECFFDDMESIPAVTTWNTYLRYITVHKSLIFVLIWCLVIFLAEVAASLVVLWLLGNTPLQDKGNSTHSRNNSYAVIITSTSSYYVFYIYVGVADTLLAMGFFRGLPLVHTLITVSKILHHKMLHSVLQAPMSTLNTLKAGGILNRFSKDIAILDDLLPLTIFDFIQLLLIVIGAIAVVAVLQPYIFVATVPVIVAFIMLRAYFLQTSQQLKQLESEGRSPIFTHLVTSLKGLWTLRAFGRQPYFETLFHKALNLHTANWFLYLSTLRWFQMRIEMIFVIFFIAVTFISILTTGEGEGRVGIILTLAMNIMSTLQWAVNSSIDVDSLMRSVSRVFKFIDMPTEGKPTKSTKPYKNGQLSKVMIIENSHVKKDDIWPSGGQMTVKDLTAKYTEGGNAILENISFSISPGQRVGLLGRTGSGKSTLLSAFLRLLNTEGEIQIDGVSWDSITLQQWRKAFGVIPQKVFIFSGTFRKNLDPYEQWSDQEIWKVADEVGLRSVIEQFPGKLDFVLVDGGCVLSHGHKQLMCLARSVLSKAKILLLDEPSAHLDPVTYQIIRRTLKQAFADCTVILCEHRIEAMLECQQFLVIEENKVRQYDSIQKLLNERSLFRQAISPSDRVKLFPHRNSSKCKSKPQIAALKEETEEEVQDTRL

SMILES	IC50
Cn1c(=O)c2c(-c3ccccc3)n3c(c2n(C)c1=O)C(c1cccc(Cl)c1)SCC3 (racemic) [Example 1.6, 10-(3-Chlorophenyl)-1,3-dimethyl-5-phenyl-7,8-dihydro-1H-pyrimido[4′,5′:3,4]pyrrolo[2,1-c][1,4]thiazine-2,4(3H,10H)-dione]	11.1 µM
Cc1ccc(C2SCCn3c(-c4ccccc4)c4c(=O)n(C)c(=O)n(C)c4c32)s1 (racemic) [Example 1.10, 1,3-Dimethyl-10-(5-methylthiophen-2-yl)-5-phenyl-7,8-dihydro-1H-pyrimido[4′,5′:3,4]pyrrolo[2,1-c][1,4]thiazine-2,4(3H,10H)-dione]	8.08 µM
Cn1c(=O)c2c(-c3ccccc3)n3c(c2n(C)c1=O)C(c1cccc(F)c1F)CCC3 (racemic) [Example 6.1, 10-(2,3-Difluorophenyl)-1,3-dimethyl-5-phenyl-7,8,9,10-tetrahydropyrimido[4,5-a]indolizine-2,4(1H,3H)-dione]	27.6 µM
Cn1c(=O)c2c(-c3ccccc3)n3c(c2n(C)c1=O)C(c1cccc(C#N)c1)CCC3 (racemic) [Example 9.2, 3-(1,3-Dimethyl-2,4-dioxo-5-phenyl-1,2,3,4,7,8,9,10-octahydropyrimido[4,5-a]indolizin-10-yl)benzonitrile]	9.3 µM
Cc1csc(C2CCNn3c(-c4ccccc4)c4c(=O)n(C)c(=O)n(C)c4c32)n1 (racemic) [Example 10.0, 1,3-Dimethyl-10-(4-methylthiazol-2-yl)-5-phenyl-7,8,9,10-tetrahydropyrimido[4′,5′:3,4]pyrrolo[1,2-b]pyridazine-2,4(1H,3H)-dione]	2.15 µM
Cc1csc(C2CCNn3c(-c4cccc(Cl)c4)c4c(=O)n(C)c(=O)n(C)c4c32)n1 (racemic) [Example 10.2, 5-(3-Chlorophenyl)-1,3-dimethyl-10-(4-methylthiazol-2-yl)-7,8,9,10-tetrahydropyrimido[4′,5′:3,4]pyrrolo[1,2-b]pyridazine-2,4(1H,3H)-dione]	0.7 µM
Cc1ccc(C2CCn3c(-c4ccccc4)c4c(=O)n(C)c(=O)n(C)c4c32)o1 (racemic) [Example 11.0, 1,3-Dimethyl-9-(5-methylfuran-2-yl)-5-phenyl-8,9-dihydro-1H-pyrimido[4,5-a]pyrrolizine-2,4(3H,7H)-dione]	9.14 µM
Cn1cnc(-c2c3c(=O)n(C)c(=O)n(C)c3c3n2CCSC3c2ccc(Cl)o2)c1 (racemic) [Example 15.7, 10-(5-Chlorofuran-2-yl)-1,3-dimethyl-5-(1-methyl-1H-imidazol-4-yl)-7,8-dihydro-1H-pyrimido[4′,5′:3,4]pyrrolo[2,1-c][1,4]thiazine-2,4(3H,10H)-dione]	5.5 µM
Cn1cc(-c2c3c(=O)n(C)c(=O)n(C)c3c3n2CCSC3c2ccc(Cl)o2)cn1 (racemic) [Example 15.8, 10-(5-Chlorofuran-2-yl)-1,3-dimethyl-5-(1-methyl-1H-pyrazol-4-yl)-7,8-dihydro-1H-pyrimido[4′,5′:3,4]pyrrolo[2,1-c][1,4]thiazine-2,4(3H,10H)-dione]	3.93 µM
Cc1nnc(-c2c3c(=O)n(C)c(=O)n(C)c3c3n2CCSC3c2ccc(Cl)o2)o1 (racemic) [Example 15.9, 10-(5-Chlorofuran-2-yl)-1,3-dimethyl-5-(5-methyl-1,3,4-oxadiazol-2-yl)-7,8-dihydro-1H-pyrimido[4′,5′:3,4]pyrrolo[2,1-c][1,4]thiazine-2,4(3H,10H)-dione]	1.9 µM
Cc1coc(-c2c3c(=O)n(C)c(=O)n(C)c3c3n2CCSC3c2ccc(Cl)o2)n1 (racemic) [Example 15.10, 10-(5-Chlorofuran-2-yl)-1,3-dimethyl-5-(4-methyloxazol-2-yl)-7,8-dihydro-1H-pyrimido[4′,5′:3,4]pyrrolo[2,1-c][1,4]thiazine-2,4(3H,10H)-dione]	1.18 µM
Cc1ccc(C2c3c4c(c(-c5cccc(F)c5)n3CCC2(F)F)c(=O)n(C)c(=O)n4C)o1 (racemic) [Example 18, 9,9-Difluoro-5-(3-fluorophenyl)-1,3-dimethyl-10-(5-methylfuran-2-yl)-7,8,9,10-tetrahydropyrimido[4,5-a]indolizine-2,4(1H,3H)-dione]	0.48 µM
Cn1ccc(-c2c3c(=O)n(C)c(=O)n(C)c3c3n2CCCC3c2nc(Cl)cs2)n1 (racemic) [Example 22, 10-(4-Chlorothiazol-2-yl)-1,3-dimethyl-5-(1-methyl-1H-pyrazol-3-yl)-7,8,9,10-tetrahydropyrimido[4,5-a]indolizine-2,4(1H,3H)-dione]	0.47 µM
Cn1c(=O)c2c(-c3nc(C(=O)O)cs3)n3c(c2n(C)c1=O)C(c1ccc(Cl)o1)SCC3 (racemic) [Example 25, 2-(10-(5-Chlorofuran-2-yl)-1,3-dimethyl-2,4-dioxo-2,3,4,7,8,10-hexahydro-1H-pyrimido[4′,5′:3,4]pyrrolo[2,1-c][1,4]thiazin-5-yl)thiazole-4-carboxylic acid]	4.84 µM
C=C1Cn2c(-c3cccc(F)c3)c3c(=O)n(C)c(=O)n(C)c3c2C1c1nc(Cl)cs1 (racemic) [Example 29, 9-(4-Chlorothiazol-2-yl)-5-(3-fluorophenyl)-1,3-dimethyl-8-methylene-8,9-dihydro-1H-pyrimido[4,5-a]pyrrolizine-2,4(3H,7H)-dione]	0.44 µM
Cc1ccc(C2SCCn3c(-c4ccccc4)c4c(=O)n(C)c(=O)n(C)c4c32)o1 (single isomer, unassigned) [Example 1.2, 1,3-Dimethyl-10-(5-methylfuran-2-yl)-5-phenyl-7,8-dihydro-1H-pyrimido[4′,5′:3,4]pyrrolo[2,1-c][1,4]thiazine-2,4(3H,10H)-dione]	0.79 µM
Cc1ccc(C2SCCn3c(-c4ccccc4)c4c(=O)n(C)c(=O)n(C)c4c32)o1 (single isomer, unassigned) [Example 1.3, 1,3-Dimethyl-10-(5-methylfuran-2-yl)-5-phenyl-7,8-dihydro-1H-pyrimido[4′,5′:3,4]pyrrolo[2,1-c][1,4]thiazine-2,4(3H,10H)-dione]	> 30 µM
Cc1ccc(C2SC[C@H](CN(C)C)n3c(-c4ccccc4)c4c(=O)n(C)c(=O)n(C)c4c32)o1 (single isomer, unassigned) [Example 2.1, 7-((dimethylamino)methyl)-1,3-dimethyl-10-(5-methylfuran-2-yl)-5-phenyl-7,8-dihydro-1H-pyrimido[4′,5′:3,4]pyrrolo[2,1-c][1,4]thiazine-2,4(3H,10H)-dione]	0.41 µM
Cc1csc(-c2c3c(=O)n(C)c(=O)n(C)c3c3n2CCSC3c2ccc(Cl)o2)n1 (single isomer, unassigned) [Example 3.1.1, 10-(5-chlorofuran-2-yl)-1,3-dimethyl-5-(4-methylthiazol-2-yl)-7,8-dihydro-1H-pyrimido[4′,5′:3,4]pyrrolo[2,1-c][1,4]thiazine-2,4(3H,10H)-dione]	0.41 µM
Cn1c(=O)c2c(C3=CCCCC3)n3c(c2n(C)c1=O)C(c1ccc(Cl)o1)SCC3 (single isomer, unassigned) [Example 3.1.2, 10-(5-chlorofuran-2-yl)-5-(cyclohex-1-en-1-yl)-1,3-dimethyl-7,8-dihydro-1H-pyrimido[4′,5′:3,4]pyrrolo[2,1-c][1,4]thiazine-2,4(3H,10H)-dione]	1.51 µM
